Experimental data as given in paper PMC3376857 (2012).

Target: HDAC1 (Homo sapiens, UniProt Q13547)
Sequence (Q13547 whole entry): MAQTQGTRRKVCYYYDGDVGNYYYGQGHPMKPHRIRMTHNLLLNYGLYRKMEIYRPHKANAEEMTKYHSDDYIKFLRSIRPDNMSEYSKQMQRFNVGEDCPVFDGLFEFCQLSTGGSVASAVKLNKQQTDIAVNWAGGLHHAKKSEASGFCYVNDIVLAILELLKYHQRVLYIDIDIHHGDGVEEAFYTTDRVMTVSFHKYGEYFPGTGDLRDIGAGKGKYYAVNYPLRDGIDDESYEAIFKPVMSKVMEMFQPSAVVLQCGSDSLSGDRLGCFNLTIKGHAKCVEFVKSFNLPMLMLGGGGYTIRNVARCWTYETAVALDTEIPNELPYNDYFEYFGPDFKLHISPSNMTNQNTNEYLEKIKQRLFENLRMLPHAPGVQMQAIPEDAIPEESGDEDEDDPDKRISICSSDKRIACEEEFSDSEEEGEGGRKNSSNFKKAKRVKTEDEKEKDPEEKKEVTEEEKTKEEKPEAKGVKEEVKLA

deacetylase assay with immunopurified Flag-HDAC1 and acetylated p53 protein: 1 µM
Compound: CC(/C=C/C(=O)NO)=C\[C@@H](C)C(=O)c1ccc(N(C)C)cc1 [TSA, trichostatin A]
